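Protocol summary: plate cells (96-well), add compound at 5 concentrations, incubate 48 h, interpolate endpoints linearly. Here, GI50 denotes the concentration required for 50% inhibition of growth. TGI marks complete inhibition of growth.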
What was measured:
Assay in all cases: NCI-60 cell line screen, 48 h
NCI-H460 lung = system: NCI-H460 lung
SK-OV-3 ovarian = system: SK-OV-3 ovarian
SK-MEL-5 melanoma = system: SK-MEL-5 melanoma
MDA-MB-231 breast = system: MDA-MB-231 breast
IGROV1 ovarian = system: IGROV1 ovarian
HCC-2998 colon = system: HCC-2998 colon
NCI-H522 lung = system: NCI-H522 lung
UACC-62 melanoma = system: UACC-62 melanoma
MOLT-4 leukemia = system: MOLT-4 leukemia
A549 NSCLC = system: A549 NSCLC
KM12 colon = system: KM12 colon
T-47D breast = system: T-47D breast
U251 CNS = system: U251 CNS
CAKI-1 renal = system: CAKI-1 renal
RXF 393 renal = system: RXF 393 renal
BT-549 breast = system: BT-549 breast
DU-145 prostate = system: DU-145 prostate
HS 578T breast = system: HS 578T breast
RPMI-8226 leukemia = system: RPMI-8226 leukemia
EKVX NSCLC = system: EKVX NSCLC
SF-295 CNS = system: SF-295 CNS
LOX IMVI melanoma = system: LOX IMVI melanoma
ACHN renal = system: ACHN renal
OVCAR-5 ovarian = system: OVCAR-5 ovarian
OVCAR-4 ovarian = system: OVCAR-4 ovarian
SK-MEL-28 melanoma = system: SK-MEL-28 melanoma
SNB-75 CNS = system: SNB-75 CNS
NCI-H23 lung = system: NCI-H23 lung
NCI-H226 lung = system: NCI-H226 lung
SF-268 CNS = system: SF-268 CNS
HL-60(TB) leukemia = system: HL-60(TB) leukemia
UO-31 renal = system: UO-31 renal
SR leukemia = system: SR leukemia
HOP-92 NSCLC = system: HOP-92 NSCLC
MALME-3M melanoma = system: MALME-3M melanoma
MCF7 breast = system: MCF7 breast
TK-10 renal = system: TK-10 renal
HCT-116 colon = system: HCT-116 colon
HT29 colon = system: HT29 colon
UACC-257 melanoma = system: UACC-257 melanoma
SK-MEL-2 melanoma = system: SK-MEL-2 melanoma
786-0 renal = system: 786-0 renal
M14 melanoma = system: M14 melanoma
SW-620 colon = system: SW-620 colon
SN12C renal = system: SN12C renal
COLO 205 colon = system: COLO 205 colon
K-562 leukemia = system: K-562 leukemia
NCI/ADR-RES ovarian = system: NCI/ADR-RES ovarian
A498 renal = system: A498 renal
OVCAR-3 ovarian = system: OVCAR-3 ovarian
PC-3 prostate = system: PC-3 prostate
HCT-15 colon = system: HCT-15 colon
SNB-19 CNS = system: SNB-19 CNS
SF-539 CNS = system: SF-539 CNS
HOP-62 NSCLC = system: HOP-62 NSCLC
OVCAR-8 ovarian = system: OVCAR-8 ovarian
CCRF-CEM leukemia = system: CCRF-CEM leukemia

## Cc1cc(Cl)cc(NS(=O)(=O)c2ccc(-c3cnc(C4CC4)o3)cc2)c1
NCI-H460 lung
  GI50: 0.264 µM
  TGI: 7.22 µM
SK-OV-3 ovarian
  GI50: 0.783 µM
  TGI: 22.6 µM
SK-MEL-5 melanoma
  GI50: 0.322 µM
  TGI: 6.98 µM
MDA-MB-231 breast
  GI50: 0.656 µM
  TGI: 14.5 µM
IGROV1 ovarian
  GI50: 0.331 µM
  TGI: 13.5 µM
HCC-2998 colon
  GI50: 0.745 µM
  TGI: 12.6 µM
NCI-H522 lung
  GI50: 0.465 µM
  TGI: 14.3 µM
UACC-62 melanoma
  GI50: 0.174 µM
  TGI: 12 µM
MOLT-4 leukemia
  GI50: 0.451 µM
  TGI: 31.1 µM
A549 NSCLC
  GI50: 0.565 µM
  TGI: 16.6 µM
KM12 colon
  GI50: 0.303 µM
  TGI: 13.3 µM
T-47D breast
  GI50: 0.379 µM
  TGI: 26.2 µM
U251 CNS
  GI50: 0.436 µM
  TGI: 15.6 µM
CAKI-1 renal
  GI50: 0.125 µM
  TGI: 14.5 µM
RXF 393 renal
  GI50: 0.16 µM
  TGI: 0.556 µM
BT-549 breast
  GI50: 1.63 µM
  TGI: 16.4 µM
DU-145 prostate
  GI50: 0.374 µM
  TGI: 15.1 µM
HS 578T breast
  GI50: 0.3 µM
  TGI: 14.1 µM
RPMI-8226 leukemia
  GI50: 0.232 µM
  TGI: 4.75 µM
EKVX NSCLC
  GI50: 0.499 µM
  TGI: 16.7 µM
SF-295 CNS
  GI50: 0.146 µM
  TGI: 11 µM
LOX IMVI melanoma
  GI50: 0.279 µM
  TGI: 11.1 µM
ACHN renal
  GI50: 0.758 µM
  TGI: 14.1 µM
OVCAR-5 ovarian
  GI50: 0.565 µM
  TGI: 15.5 µM
OVCAR-4 ovarian
  GI50: 1.07 µM
  TGI: 19.8 µM
SK-MEL-28 melanoma
  GI50: 1.28 µM
  TGI: 19.5 µM
SNB-75 CNS
  GI50: 0.128 µM
  TGI: 1.7 µM
NCI-H23 lung
  GI50: 0.52 µM
  TGI: 13.8 µM
NCI-H226 lung
  GI50: 0.454 µM
  TGI: 9.89 µM
SF-268 CNS
  GI50: 1.27 µM
  TGI: 16.5 µM
HL-60(TB) leukemia
  GI50: 0.156 µM
  TGI: 2.57 µM
UO-31 renal
  GI50: 0.798 µM
  TGI: 14.8 µM
SR leukemia
  GI50: 0.0465 µM
  TGI: 19.1 µM
HOP-92 NSCLC
  GI50: 0.151 µM
  TGI: 4.28 µM
MALME-3M melanoma
  GI50: 0.712 µM
  TGI: 22.2 µM
MCF7 breast
  GI50: 0.0702 µM
  TGI: 13.8 µM
TK-10 renal
  GI50: 6.22 µM
  TGI: 23 µM
HCT-116 colon
  GI50: 0.347 µM
  TGI: 11.1 µM
HT29 colon
  GI50: 0.313 µM
  TGI: 12.1 µM
UACC-257 melanoma
  GI50: 3.18 µM
  TGI: 20.8 µM
SK-MEL-2 melanoma
  GI50: 1.05 µM
  TGI: 20.9 µM
786-0 renal
  GI50: 1.06 µM
  TGI: 15.9 µM
M14 melanoma
  GI50: 0.351 µM
  TGI: 14.2 µM
SW-620 colon
  GI50: 0.218 µM
  TGI: 15.5 µM
SN12C renal
  GI50: 0.986 µM
  TGI: 13.9 µM
COLO 205 colon
  GI50: 0.322 µM
  TGI: 2.71 µM
K-562 leukemia
  GI50: 0.051 µM
  TGI: > 33.2 µM
NCI/ADR-RES ovarian
  GI50: 0.161 µM
  TGI: 8.91 µM
A498 renal
  GI50: 0.0726 µM
  TGI: 1.28 µM
OVCAR-3 ovarian
  GI50: 0.122 µM
  TGI: 3.44 µM
PC-3 prostate
  GI50: 0.205 µM
  TGI: 11.9 µM
HCT-15 colon
  GI50: 0.106 µM
  TGI: 12.1 µM
SNB-19 CNS
  GI50: 0.412 µM
  TGI: 15.6 µM
SF-539 CNS
  GI50: 0.27 µM
  TGI: 3.2 µM
HOP-62 NSCLC
  GI50: 0.376 µM
  TGI: 16.4 µM
OVCAR-8 ovarian
  GI50: 0.716 µM
  TGI: 18 µM
CCRF-CEM leukemia
  GI50: 0.172 µM
  TGI: 17.7 µM
